Tests used:
[1] = tested on: velvetleaf (Abutilon theophrasti); assay: Test Example 5: herbicidal effect of Halosulfuron-methyl spray solution with added polyoxyethylene alkyl ethers on velvetleaf; format: in vivo; conditions: scale 0 to 100; spray solution of 75% water dispersible granules of Halosulfuron-methyl alone, 0.1 g/a., five-leaf stage, 2 l/a., 27 days after spraying
Protocol: (§1) A biological test was conducted using spray solutions prepared by adding polyoxyethylene alkyl ethers having different HLB values to a herbicide spray solution.
Biological tests were conducted on velvetleaf (Abutilon theophrasti) using spray solutions prepared by adding polyoxyethylene alkyl ethers having different HLB values to a spray solution of 75% water dispersible granules of Halosulfuron-methyl. To confirm a difference in effect between the polyoxyethylene alkyl ethers, the tests were carried out using a lower concentration of Halosulfuron-methyl than usual. A plastic pot having a diameter of 12 cm was filled with soil, and velvetleaf seeds were sowed in the soil. The solutions were sprayed on velvetleaf of five-leaf stage in an amount of 0.1 g per are (g/a.), calculated as pesticidally active ingredient Halosulfuron-methyl. The amount of the solution sprayed was 2 liters per are (l/a.)and 1,000 ppm of a the polyethylene alkyl ethers were added to the solution. Herbicidal effects were observed and evaluated 27 days after spraying.

[2] = tested on: crabgrass(Digitaria ciliaris); assay: Test Example 6: herbicidal effect of Quizalofop-p-ethyl spray solution with added polyoxyethylene alkyl ethers on crabgrass; format: in vivo; conditions: scale 0 to 100; spray solution of 40% suspension concentrates of Quizalofop-p-ethyl alone, 125 mg/a., 3 weeks after sowing, 2.5 l/a., 21 days after spraying
Protocol: as §1
Biological tests were conducted on crabgrass(Digitaria ciliaris) using spray solutions prepared by adding polyoxyethylene alkyl ethers having different HLB values to a spray solution of 40% suspension concentrates of Quizalofop-p-ethyl. A plastic pot having a diameter of 12 cm was filled with soil, and crabgrass seeds were sowed in the soil. The solutions were sprayed on in an amount of 125 mg per are (mg/a.), calculated as pesticidally active ingredient Quizalofop-p-ethyl, 3 weeks after the seeds were sowed. The amount of the solution sprayed was 2.5 liters per are (1/a.) and 125 ppm of the polyoxyethylene alkyl ethers were added to the solution. Herbicidal effects on crabgrass were observed and evaluated 21 days after spraying.

SMILES	Observation evaluation, herbicidal effect of Halosulfuron-methyl on velvetleaf, polyoxyethylene alkyl ether not added [1]	Observation evaluation, herbicidal effect of Quizalofop-p-ethyl on crabgrass, polyoxyethylene alkyl ether not added [2]
COC(=O)c1c(Cl)nn(C)c1S(=O)(=O)NC(=O)Nc1nc(OC)cc(OC)n1 [Halosulfuron-methyl]	40	
CCOC(=O)[C@@H](C)Oc1ccc(Oc2cnc3cc(Cl)ccc3n2)cc1 [Quizalofop-p-ethyl, ethyl=(R)-2-[4-(6-chloroquinoxalin-2-yloxy)phenoxy]propionate]		25
